Literature values in patent US20040137049A1, “Amphotericin b aqueous composition” (priority 2001, published 2004).
In brackets after ≈: the same amount, converted by molar mass.

Details: in methanol

In the case of `C[C@@H]1[C@H](O)[C@@H](C)/C=C/C=C/C=C/C=C/C=C/C=C/C=C/[C@H](O[C@@H]2O[C@H](C)[C@@H](O)[C@H](N)[C@@H]2O)C[C@@H]2O[C@](O)(C[C@@H](O)C[C@@H](O)[C@H](O)CC[C@@H](O)C[C@@H](O)CC(=O)O[C@H]1C)C[C@H](O)[C@H]2C(=O)O` [Amphotericin B], the Solubility is listed as 100 µg/mL (≈ 108 µM).
